# Reference: ChEMBL document CHEMBL5715954, “Silencing c-Myc translation as a therapeutic strategy through targeting PI3Kδ and CK1ε in hematological malignancies” (Blood, 2017)
# How the values were obtained:
# Design in all cases: scale not given: the % may be the effect or the level left
# [1] = target: T1, Mitogen-activated protein kinase kinase kinase kinase 2 (Homo sapiens) (UniProt Q12851); assay: Inhibition of human GCK assessed as enzyme activity at 1 uM using myelin basic protein as substrate preincubated for 20 mins followed by [gamma-33P]-ATP addition and measured after 120 mins by radiometric Hot-SpotSM Kinase assay relative to control
# T1 sequence (whole entry): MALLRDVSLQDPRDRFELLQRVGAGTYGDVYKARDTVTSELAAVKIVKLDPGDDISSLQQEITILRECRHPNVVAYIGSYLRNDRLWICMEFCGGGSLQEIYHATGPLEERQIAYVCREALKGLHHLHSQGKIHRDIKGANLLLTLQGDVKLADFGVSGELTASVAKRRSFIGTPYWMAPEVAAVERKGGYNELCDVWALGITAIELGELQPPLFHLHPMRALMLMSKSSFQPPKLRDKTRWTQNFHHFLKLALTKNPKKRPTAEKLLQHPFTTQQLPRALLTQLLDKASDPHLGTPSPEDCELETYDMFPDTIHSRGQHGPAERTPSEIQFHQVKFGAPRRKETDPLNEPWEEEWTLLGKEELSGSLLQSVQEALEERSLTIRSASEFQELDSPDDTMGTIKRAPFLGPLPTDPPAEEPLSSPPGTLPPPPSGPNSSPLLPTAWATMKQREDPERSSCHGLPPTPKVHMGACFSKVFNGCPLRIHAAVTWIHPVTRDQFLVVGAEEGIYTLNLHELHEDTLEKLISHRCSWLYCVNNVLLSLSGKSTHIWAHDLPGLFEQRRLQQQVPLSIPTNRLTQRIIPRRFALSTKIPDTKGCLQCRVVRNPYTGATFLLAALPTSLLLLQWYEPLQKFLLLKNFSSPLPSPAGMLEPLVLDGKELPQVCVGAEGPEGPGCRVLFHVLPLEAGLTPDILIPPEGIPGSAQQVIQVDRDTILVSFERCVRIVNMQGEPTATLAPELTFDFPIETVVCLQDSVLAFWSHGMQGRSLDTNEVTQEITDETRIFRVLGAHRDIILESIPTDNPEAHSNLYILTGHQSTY
# [2] = target: CDK7/Cyclin H/MNAT1 (Homo sapiens) (UniProt P51946+P50613+P51948); assay: Inhibition of human CDK7/Cyclin H/MNAT1 assessed as enzyme activity at 1 uM using myelin basic protein as substrate preincubated for 20 mins followed by [gamma-33P]-ATP addition and measured after 120 mins by radiometric Hot-SpotSM Kinase assay relative to control; type: protein-complex assay
# [3] = target: T2, Rhodopsin kinase GRK7 (Homo sapiens) (UniProt Q8WTQ7); assay: Inhibition of human GRK7 assessed as enzyme activity at 1 uM using casein as substrate preincubated for 20 mins followed by [gamma-33P]-ATP addition and measured after 120 mins by radiometric Hot-SpotSM Kinase assay relative to control
# T2 sequence (whole entry): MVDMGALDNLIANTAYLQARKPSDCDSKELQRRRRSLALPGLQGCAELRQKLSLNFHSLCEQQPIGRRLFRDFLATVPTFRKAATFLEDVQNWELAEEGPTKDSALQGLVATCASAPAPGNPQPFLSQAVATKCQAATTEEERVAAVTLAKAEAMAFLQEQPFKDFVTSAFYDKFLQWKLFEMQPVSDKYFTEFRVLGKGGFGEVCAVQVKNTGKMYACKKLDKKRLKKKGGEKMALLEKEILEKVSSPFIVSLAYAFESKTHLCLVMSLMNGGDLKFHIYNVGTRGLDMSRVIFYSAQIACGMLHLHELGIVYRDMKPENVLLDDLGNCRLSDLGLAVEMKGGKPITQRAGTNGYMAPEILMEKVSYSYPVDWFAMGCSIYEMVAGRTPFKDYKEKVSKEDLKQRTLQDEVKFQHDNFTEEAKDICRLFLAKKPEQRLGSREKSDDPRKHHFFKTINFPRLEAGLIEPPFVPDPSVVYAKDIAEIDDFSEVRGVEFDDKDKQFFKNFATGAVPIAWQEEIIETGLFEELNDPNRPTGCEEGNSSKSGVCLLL
# [4] = target: T3, Myosin-IIIb (Homo sapiens) (UniProt Q8WXR4); assay: Inhibition of human MYO3b assessed as enzyme activity at 1 uM using myelin basic protein as substrate preincubated for 20 mins followed by [gamma-33P]-ATP addition and measured after 120 mins by radiometric Hot-SpotSM Kinase assay relative to control
# T3 sequence (whole entry): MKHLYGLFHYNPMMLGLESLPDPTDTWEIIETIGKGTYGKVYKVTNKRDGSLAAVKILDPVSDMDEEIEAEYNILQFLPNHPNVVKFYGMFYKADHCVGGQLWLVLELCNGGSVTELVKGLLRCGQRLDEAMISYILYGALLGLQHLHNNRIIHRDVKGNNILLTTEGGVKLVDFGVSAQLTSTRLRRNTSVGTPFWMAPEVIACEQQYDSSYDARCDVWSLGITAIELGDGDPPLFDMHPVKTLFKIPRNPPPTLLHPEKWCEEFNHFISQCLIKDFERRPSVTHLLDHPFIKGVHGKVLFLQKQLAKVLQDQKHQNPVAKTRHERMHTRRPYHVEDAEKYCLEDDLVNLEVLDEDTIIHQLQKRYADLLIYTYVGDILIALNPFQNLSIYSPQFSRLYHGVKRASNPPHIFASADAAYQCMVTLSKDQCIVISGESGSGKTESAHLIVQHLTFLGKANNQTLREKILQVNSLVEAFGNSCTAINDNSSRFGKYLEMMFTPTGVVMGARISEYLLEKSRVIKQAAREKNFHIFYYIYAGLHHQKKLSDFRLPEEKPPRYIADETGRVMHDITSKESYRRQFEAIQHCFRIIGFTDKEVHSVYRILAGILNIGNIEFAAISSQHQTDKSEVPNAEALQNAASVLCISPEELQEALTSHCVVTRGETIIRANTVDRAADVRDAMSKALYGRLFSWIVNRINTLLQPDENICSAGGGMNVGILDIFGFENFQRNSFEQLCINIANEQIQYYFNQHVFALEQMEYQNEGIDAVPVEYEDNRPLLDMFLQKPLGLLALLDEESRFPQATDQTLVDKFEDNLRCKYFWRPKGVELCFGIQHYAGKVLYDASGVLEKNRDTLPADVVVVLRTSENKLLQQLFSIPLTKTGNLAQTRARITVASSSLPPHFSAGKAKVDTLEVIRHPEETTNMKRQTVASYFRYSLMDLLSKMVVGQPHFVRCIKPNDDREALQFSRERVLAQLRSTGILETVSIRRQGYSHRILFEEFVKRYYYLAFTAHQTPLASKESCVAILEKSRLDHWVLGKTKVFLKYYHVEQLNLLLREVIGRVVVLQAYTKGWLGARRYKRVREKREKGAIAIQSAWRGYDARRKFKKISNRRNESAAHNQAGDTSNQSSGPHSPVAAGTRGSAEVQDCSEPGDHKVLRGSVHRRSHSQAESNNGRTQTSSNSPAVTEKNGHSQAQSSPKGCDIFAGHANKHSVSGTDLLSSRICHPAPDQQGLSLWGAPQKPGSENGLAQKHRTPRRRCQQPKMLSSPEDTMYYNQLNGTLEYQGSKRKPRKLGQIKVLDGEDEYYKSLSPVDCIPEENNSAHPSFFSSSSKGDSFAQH
Compound,Activity [1],Activity [2],Activity [3],Activity [4]
CC[C@H](Nc1ncnc2[nH]cnc12)c1nc2cccc(F)c2c(=O)n1-c1ccccc1,97%,98.1%,95%,93.5%
CC(C)Oc1ccc(-c2nn([C@@H](C)c3oc4ccc(F)cc4c(=O)c3-c3cccc(F)c3)c3ncnc(N)c23)cc1F [UMBRALISIB],98.6%,101%,100%,121%
C[C@H](Nc1ncnc2nc[nH]c12)c1cc2cccc(Cl)c2c(=O)n1-c1ccccc1,96.7%,95.2%,101%,114%
